Structures can show the parent of a compound that is named as a salt.
Molecular target: T1, G9a (Homo sapiens, UniProt Q96KQ7)
T1 sequence (Q96KQ7 1-1210): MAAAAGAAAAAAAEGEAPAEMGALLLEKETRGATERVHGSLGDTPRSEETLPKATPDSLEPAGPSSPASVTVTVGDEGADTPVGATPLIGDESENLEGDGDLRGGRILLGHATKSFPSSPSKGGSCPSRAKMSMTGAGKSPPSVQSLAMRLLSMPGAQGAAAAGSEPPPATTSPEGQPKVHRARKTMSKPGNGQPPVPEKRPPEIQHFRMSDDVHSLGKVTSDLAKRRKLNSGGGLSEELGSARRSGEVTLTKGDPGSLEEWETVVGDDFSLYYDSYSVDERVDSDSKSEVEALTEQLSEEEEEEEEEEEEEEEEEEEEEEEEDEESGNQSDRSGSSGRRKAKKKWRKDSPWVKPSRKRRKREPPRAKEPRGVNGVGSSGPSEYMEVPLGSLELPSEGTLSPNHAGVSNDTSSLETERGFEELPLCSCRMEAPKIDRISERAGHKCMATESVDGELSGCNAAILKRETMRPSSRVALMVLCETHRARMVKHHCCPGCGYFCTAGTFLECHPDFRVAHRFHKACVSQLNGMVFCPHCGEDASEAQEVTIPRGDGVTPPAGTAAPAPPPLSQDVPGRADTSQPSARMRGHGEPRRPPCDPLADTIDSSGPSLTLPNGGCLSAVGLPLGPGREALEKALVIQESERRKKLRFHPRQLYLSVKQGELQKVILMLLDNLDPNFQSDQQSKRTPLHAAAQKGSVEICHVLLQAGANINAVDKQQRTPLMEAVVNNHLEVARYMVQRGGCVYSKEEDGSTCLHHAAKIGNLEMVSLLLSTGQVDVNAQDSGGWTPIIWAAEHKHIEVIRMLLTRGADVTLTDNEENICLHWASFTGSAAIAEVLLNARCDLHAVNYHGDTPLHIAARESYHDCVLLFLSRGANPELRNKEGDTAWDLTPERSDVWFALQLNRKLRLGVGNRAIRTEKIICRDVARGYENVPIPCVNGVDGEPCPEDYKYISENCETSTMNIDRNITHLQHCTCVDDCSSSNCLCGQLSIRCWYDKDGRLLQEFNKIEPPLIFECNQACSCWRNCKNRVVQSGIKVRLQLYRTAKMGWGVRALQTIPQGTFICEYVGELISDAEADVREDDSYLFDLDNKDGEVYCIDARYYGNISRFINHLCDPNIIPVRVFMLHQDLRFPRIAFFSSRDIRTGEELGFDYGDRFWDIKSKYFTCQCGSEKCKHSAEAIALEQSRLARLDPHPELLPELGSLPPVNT
Assay: G9a AlphaLISA enzymatic activity assay
Type: biochemical
Conditions: 0.15 nM G9a, 10 uM S-adenosyl-methionine, 100 nM biotinylated histone 3 peptide (1-21), 1 h room temperature
From the text: The G9a AlphaLISA assay was used to detect the methyl modifications of a biotinylated histone H3 peptide by the compounds. These modifications are done by the histone methyl transferase activity of the G9a enzyme. The assay consists of reading a chemiluminescent signal at 615 nm; this signal is generated by a laser excitation at 680 nm that transfers a reactive singlet oxygen between the donor beads and acceptor beads. Donor beads are streptavidin conjugated and bind to the biotin on the peptide. Acceptor beads are conjugated with an antibody that recognizes the specific G9a methyl mark on the peptide. If there is a methyl mark on the peptide, the acceptor beads will bind to the peptide. Upon binding, the acceptor beads will be in close proximity (<200 nm) of the donor beads and when the donor beads are excited, the transfer of the oxygen can occur and a strong signal will be generated. If there is no methyl mark, the interaction between beads will not occur and signal will be at background levels.
For the assay, the following buffer was used to set up reactions: 50 mM Tris-HCl pH9, 50 mM NaCl, 0.01% Tween-20 and 1 mM DTT (added fresh prior to starting the reactions). The assay is set up by adding a final concentration of 0.15 nM G9a, 10 uM S-adenosyl-methionine and, 100 nM biotinylated histone 3 peptide (1-21). The reaction is incubated at room temperature for 1 h, and subsequently quenched by the addition of the acceptor beads (anti-H3k9me2 AlphaLISA acceptor beads, PerkinElmer #AL117) at a final concentration of 20 ug/mL. The acceptor beads are incubated for 1 h. After 1 h, the donor beads are added at a final concentration of 20 ug/mL (Alpha Streptavidin donor beads, PerkinElmer #6760002). Donor beads are incubated for 0.5 h. Both donor and acceptor beads are resuspended in AlphaLISA 5× Epigenetics Buffer 1 Kit (PerkinElmer #AL008) prior to addition to the reaction. All manipulations and incubations with the donor and acceptor beads are done in subdued light. Signal is detected in an EnVision plate reader in Alpha mode (See ACS Med Chem Lett. 2014 Jan. 2; 5(2):205-9)
Percent inhibition was calculated for each compound dilution and the concentration that produced 50% inhibition was calculated. This value is presented as the IC50.

Row | IC50 | Structure (SMILES)
1 | 3.2 nM | COc1cc2c(cc1OCCCN1CCCC1)[nH]c1ccncc12 [Compound 6, 1-[3-({8-methoxy-5H-pyrido[4,3-b]indol-7-yl}oxy)propyl]pyrrolidine]
2 | 280 nM | COc1cc2c(cc1OCCCN1CCCC1)[nH]c1ncccc12 [Compound 7, 1-[3-({6-methoxy-9H-pyrido[2,3-b]indol-7-yl}oxy)propyl]pyrrolidine]
3 | 5.3 nM | COc1cc2c(cc1OCCCN1CCCC1)[nH]c1cc(N)ncc12 [Compound 8, 8-methoxy-7-[3-(pyrrolidin-1-yl)propoxy]-5H-pyrido[4,3-b]indol-3-amine]
4 | 590 nM | COc1cc2c(cc1OCCCN1CCCC1)[nH]c1ccnc(F)c12 [Compound 9, 1-[3-({1-fluoro-8-methoxy-5H-pyrido[4,3-b]indol-7-yl}oxy)propyl]pyrrolidine]
5 | 4.5 nM | COc1cc2c(cc1OCCCN1CCCC1)[nH]c1cc(N)nc(C)c12 [Compound 10, 8-methoxy-1-methyl-7-[3-(pyrrolidin-1-yl)propoxy]-5H-pyrido[4,3-b]indol-3-amine]
6 | 8.2 nM | COc1cc2c(cc1OCCCN1CCCC1)[nH]c1ccnc(N3CC[C@H](O)C3)c12 [Compound 11, (3S)-1-{8-methoxy-7-[3-(pyrrolidin-1-yl)propoxy]-5H-pyrido[4,3-b]indol-1-yl}pyrrolidin-3-ol]
7 | 1 to 3 nM | COc1cc2c(cc1OCCCN1CCCC1)[nH]c1ccnc(C3CC3)c12 [Compound 12, 1-[3-({1-cyclopropyl-8-methoxy-5H-pyrido[4,3-b]indol-7-yl}oxy)propyl]pyrrolidine]
8 | 34 nM | COc1cc2c(cc1OCCCN1CCCC1)[nH]c1ccnc(N3CC[C@@H](O)C3)c12 [Compound 13, (3R)-1-{8-methoxy-7-[3-(pyrrolidin-1-yl)propoxy]-5H-pyrido[4,3-b]indol-1-yl}pyrrolidin-3-ol]
9 | 6.5 nM | COC[C@H](C)Nc1nccc2[nH]c3cc(OCCCN4CCCC4)c(OC)cc3c12 [Compound 14, 8-methoxy-N-[(2S)-1-methoxypropan-2-yl]-7-[3-(pyrrolidin-1-yl)propoxy]-5H-pyrido[4,3-b]indol-1-amine]
10 | 3.3 nM | COc1cc2c(cc1OCCCN1CCCC1)[nH]c1ccnc(N3CCCC3)c12 [Compound 15, 1-{8-methoxy-7-[3-(pyrrolidin-1-yl)propoxy]-5H-pyrido[4,3-b]indol-1-yl}pyrrolidine]
11 | 61 nM | COc1cc2c(cc1OCCCN1CCCC1)[nH]c1ccnc(N3CCC(O)CC3)c12 [Compound 16, 1-{8-methoxy-7-[3-(pyrrolidin-1-yl)propoxy]-5H-pyrido[4,3-b]indol-1-yl}piperidin-4-ol]
12 | 370 nM | COc1cc2c(cc1OCCCN1CCCC1)[nH]c1ccnc(N3CCOCC3)c12 [Compound 17, 4-{8-methoxy-7-[3-(pyrrolidin-1-yl)propoxy]-5H-pyrido[4,3-b]indol-1-yl}morpholine]
13 | 12 nM | COc1cc2c(cc1OCCCN1CCCC1)[nH]c1ccnc(N3CC(O)C3)c12 [Compound 18, 1-{8-methoxy-7-[3-(pyrrolidin-1-yl)propoxy]-5H-pyrido[4,3-b]indol-1-yl}azelidin-3-ol]
14 | 300 nM | COc1cc2c(cc1OCCCN1CCCC1)[nH]c1ccnc(N3CC4CCC(C3)O4)c12 [Compound 19, 3-{8-methoxy-7-[3-(pyrrolidin-1-yl)propoxy]-5H-pyrido[4,3-b]indol-1-yl}-8-oxa-3-azabicyclo[3.2.1]octane]
15 | 7 nM | CCOCCNc1nccc2[nH]c3cc(OCCCN4CCCC4)c(OC)cc3c12 [Compound 20, N-(2-ethoxyethyl)-8-methoxy-7-[3-(pyrrolidin-1-yl)propoxy]-5H-pyrido[4,3-b]indol-1-amine]
16 | 3.3 nM | CCCc1nccc2[nH]c3cc(OCCCN4CCCC4)c(OC)cc3c12 [Compound 21, 1-[3-({8-methoxy-1-propyl-5H-pyrido[4,3-b]indol-7-yl}oxy)-propyl]pyrrolidine]
17 | 570 nM | COc1cc2c(cc1OCCCN1CCCC1)[nH]c1ncncc12 [Compound 22, 1-[3-({6-methoxy-9H-pyrimido-[4,5-b]indol-7-yl}oxy)propyl]-pyrrolidine]
18 | 100 nM | COc1cc2c(cc1OCCCN1CCCC1)[nH]c1ccnc(-c3ccncc3)c12 [Compound 23, 8-methoxy-1-(pyridin-4-yl)-7-(3-(pyrrolidin-1-yl)propoxy)-5H-pyrido[4,3-b]indole]
19 | 93 nM | COc1cc2c(cc1OCCCN1CCCC1)[nH]c1ccnc(-c3cccnc3)c12 [Compound 24, 8-methoxy-1-(pyridin-3-yl)-7-(3-(pyrrolidin-1-yl)propoxy)-5H-pyrido[4,3-b]indole]
20 | 140 nM | COc1cc2c(cc1OCCCN1CCCC1)[nH]c1ccnc(-c3ccccn3)c12 [Compound 25, 8-methoxy-1-(pyridin-2-yl)-7-(3-(pyrrolidin-1-yl)propoxy)-5H-pyrido[4,3-b]indole]
21 | 250 nM | COc1c(OCCCN2CCCC2)ccc2c1[nH]c1cccnc12 [Compound 26, 1-[3-({6-methoxy-5H-pyrido[3,2-b]indol-7-yl}oxy)propyl]pyrrolidine hydrochloride]
22 | 150 nM | COc1cc2c(cc1OCCCN1CCCC1)[nH]c1cccnc12 [Compound 27, 1-[3-({8-methoxy-5H-pyrido[3,2-b]indol-7-yl}oxy)propyl]pyrrolidine hydrochloride]
23 | 60 nM | COc1cc2c(cc1OCCCN1CCCC1)[nH]c1cnccc12 [Compound 28, 1-[3-({6-methoxy-9H-pyrido[3,4-b]indol-7-yl}oxy)propyl]pyrrolidine hydrochloride]
24 | 1.2 nM | COc1cc2c(cc1OCCCN1CCCC1)[nH]c1ccnc(C)c12 [Compound 29, 1-[3-({8-methoxy-1-methyl-5H-pyrido[4,3-b]indol-7-yl}oxy)propyl]pyrrolidine hydrochloride]
25 | 3.6 nM | COc1cc2c(cc1OCCCN1CCCC1)[nH]c1ccncc12 [Compound 31, 1-[3-({8-methoxy-5H-pyrido[4,3-b]indol-7-yl}oxy)propyl]pyrrolidine hydrochloride]
26 | 320 nM | COc1cc2c(cc1OCCCN1CCCC1)[nH]c1nc(N)ccc12 [Compound 33, 6-methoxy-7-[3-(pyrrolidin-1-yl)propoxy]-9H-pyrido[2,3-b]indol-2-amine hydrochloride]
27 | 5.7 nM | COc1cc2c(cc1OCCCN1CCCC1)[nH]c1ccnc(N3CCCC3)c12 [Compound 39, 1-{8-methoxy-7-[3-(pyrrolidin-1-yl)propoxy]-5H-pyrido[4,3-b]indol-1-yl}pyrrolidine]
28 | 1.3 nM | COc1cc2c(cc1OCCCN1CCCC1)[nH]c1ccnc(C3CC3)c12 [Compound 43, 1-[3-({1-cyclopropyl-8-methoxy-5H-pyrido[4,3-b]indol-7-yl}oxy)propyl]pyrrolidine]
29 | 170 nM | COc1cc2c(cc1OCCCN1CCCC1)[nH]c1cncnc12 [Compound 44, 1-[3-({8-methoxy-5H-pyrimido[5,4-b]indol-7-yl}oxy)propyl]pyrrolidine]
